The nature of the data set: Solubility in TFP (2,2,3,3-tetrafluoropropanol). The data set is classed as physicochemical. An excerpt: Solubility: >2% in TFP (2,2,3,3-tetrafluoropropanol)

Each structure is given as a SMILES string.

The compound `CN(C)c1ccc(/C=C/C2=[N+](C)c3ccccc3C2(C)C)o1` [Example 1] displayed a Solubility above 2%.
